How the values were obtained:
BRD4 = BRD4 (Homo sapiens, UniProt O60885); assay: BRD4 counter-assay, tabulated with the CBP AlphaLISA test; assay type: binding; conditions: unit inferred
22RV1 cells = assay: Cell growth inhibition, CellTiter-Glo, 72 h; assay type: cell-based; conditions: Homo sapiens, 72 h culture, mean of N=2
In short: (§1)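 Cells seeded at 5×10^3/well in RPMI-1640 with 10% FBS, compound added next day at 0.5% DMSO final, 72 h at 37°C. CellTiter-Glo luminescence read; % inhibition normalised to 0.5% DMSO (0%) and 1% Tween 20 (100%), plotted against concentration in nM; mean ± SEM, N=2.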

OPM-2 cells = assay: Cell growth inhibition, CellTiter-Glo, 72 h; assay type: cell-based; conditions: Homo sapiens, 72 h culture, mean of N=2
In short: as §1

vCap cells = assay: Cell growth inhibition, CellTiter-Glo, 72 h; assay type: cell-based; conditions: Homo sapiens, 72 h culture, mean of N=2
In short: as §1

MM1S cells = assay: Cell growth inhibition, CellTiter-Glo, 72 h; assay type: cell-based; conditions: 72 h culture, mean of N=2
In short: as §1

CBP bromodomain = target: T1, CBP bromodomain (Homo sapiens, UniProt Q92793); assay: CBP AlphaLISA Assay Kit: binding of CBP bromodomain to acetylated histone substrate; conditions: 30 min incubation with CBP and biotinylated substrate, N=2, unit inferred
T1 construct: purchased
Procedure: The biochemical activity test of CBP preparations was detected using CBP AlphaLISA® Assay Kit. The detection principle is based on the binding of CBP bromodomain to acetylated histone substrate. The compounds were incubated with CBP and biotinylated substrate for 30 min, followed by the addition of acceptor beads for 15 min and donor beads for 15 min. Alpha counts were read, data were analyzed using Prism 7.0 and IC50 values were calculated.

T1 sequence (Q92793 1085-1192 limits assumed): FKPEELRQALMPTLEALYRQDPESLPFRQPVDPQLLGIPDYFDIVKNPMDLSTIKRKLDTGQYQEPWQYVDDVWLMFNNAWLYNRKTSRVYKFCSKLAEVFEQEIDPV

Structure (SMILES) | IC50 (BRD4) | IC50 (22RV1 cells) | IC50 (OPM-2 cells) | IC50 (vCap cells) | IC50 (MM1S cells) | IC50 (CBP bromodomain) | IC50 (MM1S cells; Homo sapiens, MM1.S)
CO[C@H]1CC[C@H](n2c([C@@H]3CCCC(=O)N3c3ccc(F)c(F)c3)nc3cc(-c4c(C)noc4C)ccc32)CC1 [CCS1477] | 7250 nM | 2520 nM | 37 nM | 140 nM | 220 nM |  | 
C=CC(=O)N[C@H]1CC[C@@H](c2cc3c(c(N4CCCc5cc(-c6cnn(C)c6)c(C(F)F)cc54)c2)CN(C(C)=O)C3)CC1 [Compound 1339] | 7430 nM | 2500 nM | 8 nM |  |  | 4.7 nM | 48 nM
C=CS(=O)(=O)N[C@H]1CC[C@H](c2cc3c(c(N4CCCc5cc(-c6cnn(C)c6)c(C(F)F)cc54)c2)CN(C(C)=O)C3)CC1 [Compound 1343] | 7880 nM | 205 nM | 8 nM |  |  | 7.5 nM | 39 nM
C=CS(=O)(=O)N1CCC(c2cc3c(c(N4CCCc5cc(-c6cnn(C)c6)c(C(F)F)cc54)c2)CN(C(C)=O)C3)CC1 [Compound 1344] | 7920 nM | 263 nM | 15 nM | 33 nM |  | 7 nM | 68 nM
C=CS(=O)(=O)N[C@H]1CC[C@@H](c2cc3c(c(N4CCCc5cc(-c6cnn(C)c6)c(C(F)F)cc54)c2)CN(C(C)=O)C3)CC1 [Compound 1345, N-((1s,4s)-4-(2-acetyl-7-(7-(difluoromethyl)-6-(1-methyl-1H-pyrazol-4-yl)-3,4-dihydroquinolin-1(2H)-yl)isoindolin-5-yl)cyclohexyl)ethenesulfonamide] | > 10000 nM | 48 nM | 4 nM | 12 nM |  | 9.3 nM | 15 nM
C=CS(=O)(=O)N1CCC(c2cc3c(c(N4CCCc5cc(-c6cnn(C)c6)c(C(F)F)cc54)c2)CN(C(=O)NC)CC3)CC1 [Compound 1347] | > 10000 nM | 155 nM | 2 nM |  |  | 7.5 nM | 26 nM
CC(=O)N1Cc2cc(C3CCN(C(=O)/C=C/CN(C)C)CC3)cc(N3CCCc4cc(-c5cnn(C)c5)c(C(F)F)cc43)c2C1 [Compound 1357] | 5710 nM | 5420 nM |  |  |  | 0.96 nM | 58 nM
CC(=O)N1Cc2cc(C3CCN(Cc4ccc(COc5cccc6c5CN(C5CCC(=O)NC5=O)C6=O)cc4)CC3)cc(N3CCCc4cc(-c5cnn(C)c5)c(C(F)F)cc43)c2C1 (stereo not shown) [Compound 2006, 3-[4-({4-[(4-{2-acetyl-7-[7-(difluoromethyl)-6-(1-methylpyrazol-4-yl)-3,4-dihydro-2H-quinolin-1-yl]-1 ,3-dihydroisoindol-5-yl}piperidin-1-yl)methyl]phenyl}methoxy)-1-oxo-3H-isoindol-2-yl]piperidine-2,6-dione] |  | 0.47 nM | 0.19 nM | 0.4 nM |  |  | 0.27 nM
CNC(=O)N1CCc2cc(C3CCN(C(=O)CCCCCCCCNc4ccc5c(c4)n(C)c(=O)n5C4CCC(=O)NC4=O)CC3)cc(N3CCCc4cc(-c5cnn(C)c5)c(C(F)F)cc43)c2C1 (stereo not shown) [Compound 2018] |  | 0.01 nM | 0.05 nM | < 0.005 nM |  |  | 0.1 nM
CC(=O)N1Cc2cc(C3CCN(CC4CCN(c5ccc6c(c5)CN(C5CCC(=O)NC5=O)C6=O)CC4)CC3)cc(N3CCCc4cc(-c5cnn(C)c5)c(C(F)F)cc43)c2C1 (stereo not shown) [Compound 2058] |  | 0.31 nM | 0.23 nM | 0.29 nM |  |  | 0.3 nM
CC(=O)N1Cc2cc(C3CCN(CC4CCN(c5ccc6c(c5)n(C)c(=O)n6C5CCC(=O)NC5=O)CC4)CC3)cc(N3CCCc4cc(-c5cnn(C)c5)c(C(F)F)cc43)c2C1 (stereo not shown) [Compound 2068] |  | 0.06 nM | 0.04 nM | 0.07 nM |  |  | 0.07 nM
CC(=O)N1Cc2cc(C3CCN(c4cccc5c4CN(C4CCC(=O)NC4=O)C5=O)CC3)cc(N3CCCc4cc(-c5cnn(C)c5)c(C(F)F)cc43)c2C1 (stereo not shown) [Compound 2080, 3-[4-(4-{2-acetyl-7-[7-(difluoromethyl)-6-(1-methylpyrazol-4-yl)-3,4-dihydro-2H-quinolin-1-yl]-1,3-dihydroisoindol-5-yl}piperidin-1-yl)-1-oxo-3H-isoindol-2-yl]piperidine-2,6-dione] |  | 3.97 nM | 0.52 nM | 1.17 nM |  |  | 1.16 nM
CC(=O)N1Cc2cc(C3CCN(CC4CCN(c5ccc6c(c5)C(=O)N(C5CCC(=O)NC5=O)C6=O)CC4)CC3)cc(N3CCCc4cc(-c5cnn(C)c5)c(C(F)F)cc43)c2C1 (stereo not shown) [Compound 2085] |  | 4 nM | 2 nM | 2 nM |  |  | 2 nM
CNC(=O)N1CCc2c(c(N3CCCc4cc(-c5cnn(C)c5)c(C(F)F)cc43)nn2C2CCOCC2)C1 [GNE-781] |  | 4240 nM | 8 nM | 2150 nM |  |  | 104 nM

— patent EP4813980A1, “EP300/CBP REGULATOR, AND PREPARATION METHOD THEREFOR AND USE THEREOF” (Miracure Biotechnology Limited, priority 2023, dated 2025)
